Measured values: ChEMBL document CHEMBL1132250, “Synthesis of classical and a nonclassical 2-amino-4-oxo-6-methyl-5-substituted pyrrolo[2,3-d]pyrimidine antifolate inhibitors of thymidylate synthase” (J Med Chem, 1999)
pIC50: −log10 of the molar value.

Columns and labels:
Thymidylate synthase [1] = molecular target: T1, Thymidylate synthase (Lactobacillus casei, UniProt P00469); experiment: Compound was evaluated for the inhibition at a given concentration against Lactobacillus casei Thymidylate synthase; parameters: species or system Lacticaseibacillus casei
T1 sequence (P00469 whole entry): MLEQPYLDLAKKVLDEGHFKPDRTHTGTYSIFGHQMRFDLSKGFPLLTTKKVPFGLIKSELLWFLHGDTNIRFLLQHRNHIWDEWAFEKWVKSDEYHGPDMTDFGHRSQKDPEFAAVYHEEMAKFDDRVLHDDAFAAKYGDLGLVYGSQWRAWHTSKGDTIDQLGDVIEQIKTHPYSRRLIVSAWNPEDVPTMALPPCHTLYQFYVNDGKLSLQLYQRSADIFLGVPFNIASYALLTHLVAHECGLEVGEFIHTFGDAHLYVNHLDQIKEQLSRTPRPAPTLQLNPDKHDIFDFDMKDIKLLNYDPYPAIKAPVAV

Thymidylate synthase [2] = molecular target: T2, Thymidylate synthase (Homo sapiens, UniProt P04818); experiment: Compound was evaluated for the inhibition at a given concentration against recombinant human Thymidylate synthase
T2 sequence (P04818 whole entry): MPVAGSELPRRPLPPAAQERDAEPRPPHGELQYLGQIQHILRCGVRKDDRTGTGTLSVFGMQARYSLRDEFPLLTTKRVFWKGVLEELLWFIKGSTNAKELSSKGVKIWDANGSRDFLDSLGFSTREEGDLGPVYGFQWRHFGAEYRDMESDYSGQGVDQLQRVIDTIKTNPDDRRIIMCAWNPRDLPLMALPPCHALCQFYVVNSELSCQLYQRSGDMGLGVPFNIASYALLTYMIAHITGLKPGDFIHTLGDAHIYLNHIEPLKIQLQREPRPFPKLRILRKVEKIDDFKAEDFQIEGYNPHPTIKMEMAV

Thymidylate synthase [3] = molecular target: T2, Thymidylate synthase; experiment: Compound was evaluated for the inhibition at a given concentration against recombinant human TS
Thymidylate synthase [4] = molecular target: T1, Thymidylate synthase; experiment: Compound was evaluated for the inhibition at a given concentration against Lactobacillus casei TS; parameters: species or system Lacticaseibacillus casei

Structure (SMILES)	pIC50 (Thymidylate synthase [1])	pIC50 (Thymidylate synthase [2])	pIC50 (Thymidylate synthase [3])	pIC50 (Thymidylate synthase [4])
Cc1[nH]c2nc(N)[nH]c(=O)c2c1Sc1ccc(C(=O)NC(CCC(=O)O)C(=O)O)cc1 (configuration not stated)	7.68			
Cc1[nH]c2nc(N)[nH]c(=O)c2c1CNCc1ccc(C(=O)N[C@H](CCC(=O)O)C(=O)O)cc1	3.44			
Cc1[nH]c2nc(N)nc(O)c2c1CSc1ccncc1	< 4.59	< 4.60		
Cc1[nH]c2nc(N)nc(O)c2c1CNc1ccc(C(=O)N[C@H](CCC(=O)O)C(=O)O)cc1			3.74	3.74
C#CCN(Cc1c(C)[nH]c2nc(N)nc(O)c12)c1ccc(C(=O)N[C@H](CCC(=O)O)C(=O)O)cc1	4.05			
